Data published in PubChem BioAssay (NCI).
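Exposure lasted 48 hours, with cells grown in 96-well plates and compounds tested at five concentrations. TGI is the concentration that stops growth completely.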

What was measured:
Assay in all cases: NCI-60 cell line screen, 48 h
ACHN renal = test system: ACHN renal
CAKI-1 renal = test system: CAKI-1 renal
COLO 205 colon = test system: COLO 205 colon
DU-145 prostate = test system: DU-145 prostate
HS 578T breast = test system: HS 578T breast
HT29 colon = test system: HT29 colon
M14 melanoma = test system: M14 melanoma
MCF7 breast = test system: MCF7 breast
NCI/ADR-RES ovarian = test system: NCI/ADR-RES ovarian
OVCAR-5 ovarian = test system: OVCAR-5 ovarian
RXF 393 renal = test system: RXF 393 renal
SK-MEL-2 melanoma = test system: SK-MEL-2 melanoma
SK-MEL-5 melanoma = test system: SK-MEL-5 melanoma
SK-OV-3 ovarian = test system: SK-OV-3 ovarian
T-47D breast = test system: T-47D breast
TK-10 renal = test system: TK-10 renal
NCI-H23 lung = test system: NCI-H23 lung
NCI-H522 lung = test system: NCI-H522 lung
SR leukemia = test system: SR leukemia

Row | SMILES | TGI (ACHN renal) [µM] | TGI (CAKI-1 renal) [µM] | TGI (COLO 205 colon) [µM] | TGI (DU-145 prostate) [µM] | TGI (HS 578T breast) [µM] | TGI (HT29 colon) [µM] | TGI (M14 melanoma) [µM] | TGI (MCF7 breast) [µM] | TGI (NCI/ADR-RES ovarian) [µM] | TGI (OVCAR-5 ovarian) [µM] | TGI (RXF 393 renal) [µM] | TGI (SK-MEL-2 melanoma) [µM] | TGI (SK-MEL-5 melanoma) [µM] | TGI (SK-OV-3 ovarian) [µM] | TGI (T-47D breast) [µM] | TGI (TK-10 renal) [µM] | TGI (NCI-H23 lung) [µM] | TGI (NCI-H522 lung) [µM] | TGI (SR leukemia) [µM]
1 | CCOC(=O)c1nc2ccc(C(F)(F)F)cc2nc1Oc1ccc(OC)cc1 | > 100 | > 100 | > 100 | > 100 | > 100 | > 100 | > 100 | > 100 | > 100 | > 100 | > 100 | > 100 | > 100 | > 100 | > 100 | > 100 | – | – | –
2 | Cc1nn(C(=O)Cc2ccccc2)c2c1C(c1ccc(/C=C/c3ccccc3)cc1)SC(N)=N2 (stereo unspecified) | > 100 | > 100 | > 100 | > 100 | > 100 | > 100 | > 100 | > 100 | – | – | – | – | > 100 | > 100 | > 100 | > 100 | > 100 | > 100 | –
3 | CC(=O)Nc1nc2c(=O)c3ccccc3sc2s1 | > 100 | > 100 | > 100 | > 100 | > 100 | > 100 | > 100 | > 100 | > 100 | > 100 | > 100 | > 100 | > 100 | – | > 100 | > 100 | > 100 | – | –
4 | COC(=O)C(=O)C(C(=O)C(=O)Nc1cccc(OC)c1)c1nc2ccc(Cl)cc2[nH]c1=O (stereo unspecified) | > 100 | > 100 | > 100 | > 100 | > 100 | > 100 | > 100 | > 100 | > 100 | > 100 | – | > 100 | > 100 | > 100 | > 100 | > 100 | > 100 | > 100 | –
5 | O=C(O)CCC(NC(=O)c1ccc(Nc2nc3ccc(C(F)(F)F)cc3nc2C(=O)O)cc1)C(=O)O (stereo unspecified) | > 100 | – | > 100 | > 100 | > 100 | > 100 | > 100 | > 100 | > 100 | > 100 | > 100 | > 100 | > 100 | – | > 100 | > 100 | > 100 | > 100 | > 100
6 | Cc1cccc(C)c1NC(=O)C(=O)CC(=O)c1sc(Nc2c(C)cccc2C)nc1C | > 100 | > 100 | > 100 | > 100 | > 100 | > 100 | > 100 | > 100 | > 100 | > 100 | > 100 | > 100 | – | > 100 | > 100 | > 100 | > 100 | > 100 | –
7 | CC(C)(C)n1c(=O)n2c(-c3ccccc3)c(-c3ccccc3)n2c1=O | > 100 | > 100 | > 100 | > 100 | > 100 | > 100 | > 100 | > 100 | > 100 | > 100 | > 100 | 85.3 | > 100 | > 100 | > 100 | > 100 | > 100 | 56.5 | –
8 | COC(=O)C1=C(OC)C(=P2(c3ccccc3)CC(c3ccccc3)=C2c2ccccc2)C(C(=O)OC)=C1C(=O)OC (stereo unspecified) | > 100 | > 93.6 | > 50.5 | > 100 | > 100 | – | > 100 | > 82.6 | > 100 | > 100 | > 100 | > 100 | > 81.9 | > 100 | > 51.5 | > 76 | > 100 | 13.6 | –
9 | CCCN1C(=O)CN(S(=O)(=O)c2ccc(Cl)cc2)C1=O | > 100 | > 100 | > 100 | > 100 | > 100 | > 100 | > 100 | > 100 | – | > 100 | > 100 | > 100 | > 100 | > 100 | > 100 | > 100 | > 100 | > 100 | > 100
10 | O[C@@H]1[C@H](OC2c3ccccc3-c3ccccc32)[C@H](OCc2ccccc2)[C@@H]2OC[C@H]1O2 | > 100 | > 100 | > 100 | > 100 | > 100 | > 100 | > 100 | > 100 | > 100 | > 100 | > 100 | > 100 | > 100 | – | > 100 | > 100 | > 100 | > 100 | –
11 | O=C(c1c(F)c(F)c(F)c(F)c1F)n1c(=S)n(C(=O)c2c(F)c(F)c(F)c(F)c2F)c2ccccc21 | > 100 | – | > 100 | > 100 | > 100 | > 100 | > 100 | > 100 | – | > 100 | – | > 100 | > 100 | > 100 | > 100 | > 100 | – | – | > 100
